From patent US8927500B2, “Peptidomimetic macrocycles” (Aileron Therapeutics, Inc., priority 2012, dated 2015)
Like-named read-outs stand apart in the source and are kept apart here. Where a SMILES comes first, the peptide text is derived from it. Bridges are numbered along the chain shown (N, C = ends). [ ]: non-standard residue; d: D form. Phe(4-guanidino) = N=C(N)Nc1ccc(C[C@H](N)C(=O)O)cc1; Phe(3,4-F2) = N[C@@H](Cc1ccc(F)c(F)c1)C(=O)O; R8 = C=CCCCCCC[C@@](C)(N)C(=O)O; Cba = N[C@@H](CC1CCC1)C(=O)O; S5 = C=CCCC[C@](C)(N)C(=O)O; Nle = CCCC[C@H](N)C(=O)O; Aib = CC(C)(N)C(=O)O

Key:
MDM2 = MDM2 (Homo sapiens, UniProt Q00987); test: Competitive fluorescence polarization assay for MDM2; format: binding; conditions: competitive FP assay, MDM2
Chain of MDM2 (Q00987 1-125): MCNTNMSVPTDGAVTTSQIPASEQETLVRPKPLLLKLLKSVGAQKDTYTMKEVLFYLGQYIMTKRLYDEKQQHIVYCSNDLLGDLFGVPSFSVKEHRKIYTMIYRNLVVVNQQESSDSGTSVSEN

MDMX = biological target: T1, MDMX (Homo sapiens, UniProt O15151); test: Competitive fluorescence polarization assay for MDMX; format: binding; conditions: competitive FP assay
T1 sequence (O15151 1-125): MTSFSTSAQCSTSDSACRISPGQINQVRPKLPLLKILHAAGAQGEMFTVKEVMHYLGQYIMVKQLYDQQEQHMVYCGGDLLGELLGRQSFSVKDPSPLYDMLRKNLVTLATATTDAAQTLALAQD

SMILES	Ki (MDM2; read-out: Ki (MDM2))	Ki (MDMX; read-out: Ki (MDMX))	IC50 (MDM2; read-out: IC50 (MDM2))	IC50 (MDMX; read-out: IC50 (MDMX))	Ki (MDM2; Ki (MDM2))	Ki (MDMX; Ki (MDMX))	IC50 (MDM2; IC50 (MDM2))	IC50 (MDMX; IC50 (MDMX))
CC(=O)N[C@@H](CC(C)C)C(=O)N[C@H](C(=O)N[C@@H](C)C(=O)N[C@]1(C)CCCCCCC=CCCC[C@@](C)(C(=O)N[C@@H](C)C(=O)N[C@@H](C)C(=O)N[C@@H](C)C(=O)N[C@@H](C)C(=O)N[C@@H](C)C(=O)N[C@H](C)C(N)=O)NC(=O)[C@H](CC(C)C)NC(=O)[C@H](CCC(N)=O)NC(=O)[C@H](C)NC(=O)[C@H](Cc2c[nH]c3ccccc23)NC(=O)[C@H](Cc2ccc(O)cc2)NC(=O)[C@H](CCC(=O)O)NC1=O)[C@@H](C)O [compound 560] (Ac-LTA[R8]EYWAQL[S5]AAAAA[dA]-NH2; staple 4-11)					> 1000 nM	> 1000 nM		
CC(=O)N[C@@H](CC(C)C)C(=O)N[C@H](C(=O)N[C@@H](Cc1ccccc1)C(=O)N[C@]1(C)CCCCCCC=CCCC[C@@](C)(C(=O)N[C@@H](C)C(=O)N[C@@H](C)C(=O)N[C@@H](C)C(=O)N[C@@H](C)C(=O)N[C@@H](C)C(=O)N[C@H](C)C(N)=O)NC(=O)[C@H](CC(C)C)NC(=O)[C@H](CCC(N)=O)NC(=O)[C@H](C)NC(=O)[C@H](Cc2c[nH]c3ccccc23)NC(=O)[C@H](Cc2ccc(O)cc2)NC(=O)[C@H](Cc2ccc(NC(=N)N)cc2)NC1=O)[C@@H](C)O [compound 603] (Ac-LTF[R8][Phe(4-guanidino)]YWAQL[S5]AAAAA[dA]-NH2; staple 4-11)					< 10 nM	< 10 nM		
CCCC[C@H](NC(=O)[C@H](C)NC(=O)[C@H](C)NC(=O)[C@]1(C)CCCC=CCCCCCC[C@@](C)(NC(=O)[C@H](Cc2ccccc2)NC(=O)[C@@H](NC(=O)[C@H](CC(C)C)NC(C)=O)[C@@H](C)O)C(=O)N[C@@H](C)C(=O)N[C@@H](Cc2ccc(O)cc2)C(=O)N[C@@H](Cc2c[nH]c3ccccc23)C(=O)N[C@@H](CO)C(=O)N[C@@H](CCC(N)=O)C(=O)N[C@@H](CC(C)C)C(=O)N1)C(=O)N[C@@H](C)C(N)=O [compound 306] (Ac-LTF[R8]AYWSQL[S5]AA[Nle]A-NH2; staple 4-11)	< 10 nM	10 to 100 nM	< 10 nM	100 to 1000 nM				
CC(=O)N[C@@H](CC(C)C)C(=O)N[C@H](C(=O)N[C@@H](Cc1ccccc1)C(=O)N[C@]1(C)CCCCCCC=CCCC[C@@](C)(C(=O)N[C@@H](C)C(=O)N[C@@H](C)C(=O)N[C@@H](C)C(=O)N[C@@H](C)C(=O)N[C@@H](C)C(=O)N[C@H](C)C(N)=O)NC(=O)[C@H](CC(C)C)NC(=O)[C@H](CCC(N)=O)NC(=O)[C@H](C)NC(=O)[C@H](Cc2c[nH]c3ccccc23)NC(=O)[C@H](Cc2ccc(O)cc2)NC(=O)[C@H](CCC(N)=O)NC1=O)[C@@H](C)O [compound 600] (Ac-LTF[R8]QYWAQL[S5]AAAAA[dA]-NH2; staple 4-11)					< 10 nM	< 10 nM		
CC(=O)N[C@@H](CC(C)C)C(=O)N[C@H](C(=O)N[C@@H](Cc1ccccc1)C(=O)N[C@]1(C)CCCCCCC=CCCC[C@@](C)(C(=O)N[C@@H](C)C(=O)N[C@@H](C)C(=O)N[C@@H](C)C(=O)N[C@@H](C)C(=O)N[C@H](C)C(N)=O)NC(=O)[C@H](CC(C)C)NC(=O)[C@H](CCC(N)=O)NC(=O)[C@H](C)NC(=O)[C@H](Cc2c[nH]c3ccccc23)NC(=O)[C@H](Cc2ccc(O)cc2)NC(=O)[C@H](CCC(=O)O)NC1=O)[C@@H](C)O [compound 585] (Ac-LTF[R8]EYWAQL[S5]AAAA[dA]-NH2; staple 4-11)	10 to 100 nM	10 to 100 nM						
CC(=O)N[C@@H](CC(C)C)C(=O)N[C@H](C(=O)N[C@@H](Cc1ccccc1)C(=O)N[C@]1(C)CCCCCCC=CCCC[C@@](C)(C(=O)N[C@@H](CO)C(=O)N[C@@H](C)C(=O)N[C@@H](C)C(N)=O)NC(=O)[C@H](CC(C)C)NC(=O)[C@H](C)NC(=O)[C@H](C)NC(=O)[C@H](Cc2c[nH]c3ccccc23)NC(=O)[C@H](CCC(=O)O)NC(=O)[C@H](C)NC1=O)[C@@H](C)O (single isomer, unassigned) [compound 199]					< 10 nM	100 to 1000 nM	10 to 100 nM	100 to 1000 nM
CC(=O)N[C@@H](CC(C)C)C(=O)N[C@H](C(=O)N[C@@H](Cc1ccccc1)C(=O)N[C@]1(C)CCCCCCC=CCCC[C@@](C)(C(=O)N[C@@H](C)C(=O)N[C@@H](C)C(=O)N[C@@H](C)C(=O)N[C@H](C)C(N)=O)NC(=O)[C@H](CC(C)C)NC(=O)[C@H](CCC(N)=O)NC(=O)[C@H](C)NC(=O)[C@H](Cc2c[nH]c3ccccc23)NC(=O)[C@H](Cc2ccc(O)cc2)NC(=O)[C@H](CCC(=O)O)NC1=O)[C@@H](C)O [compound 586] (Ac-LTF[R8]EYWAQL[S5]AAA[dA]-NH2; staple 4-11)	< 10 nM	10 to 100 nM						

Second part, led by results:

Ki (MDM2; read-out: Ki (MDM2))	Ki (MDMX; read-out: Ki (MDMX))	IC50 (MDM2; read-out: IC50 (MDM2))	IC50 (MDMX; read-out: IC50 (MDMX))	SMILES	Ki (MDM2; Ki (MDM2))	Ki (MDMX; Ki (MDMX))	IC50 (MDM2; IC50 (MDM2))	IC50 (MDMX; IC50 (MDMX))
10 to 100 nM	10 to 100 nM			CC(=O)N[C@@H](CC(C)C)C(=O)N[C@H](C(=O)N[C@@H](Cc1ccccc1)C(=O)N[C@]1(C)CCCCCCC=CCCC[C@@](C)(C(=O)N[C@@H](C)C(=O)N[C@@H](C)C(=O)NC(C)(C)C(=O)N[C@@H](C)C(=O)N[C@@H](C)C(=O)N[C@H](C)C(N)=O)NC(=O)[C@H](CC(C)C)NC(=O)[C@H](CCC(N)=O)NC(=O)[C@H](C)NC(=O)[C@H](Cc2c[nH]c3ccccc23)NC(=O)[C@H](Cc2ccc(O)cc2)NC(=O)[C@H](CCC(=O)O)NC1=O)[C@@H](C)O [compound 563] (Ac-LTF[R8]EYWAQL[S5]AA[Aib]AA[dA]-NH2; staple 4-11)				
10 to 100 nM	100 to 1000 nM	10 to 100 nM	100 to 1000 nM	CCCC[C@H](NC(=O)[C@H](C)NC(=O)[C@H](C)NC(=O)[C@]1(C)CCCC=CCCCCCC[C@@](C)(NC(=O)[C@H](Cc2ccccc2)NC(=O)[C@@H](NC(=O)[C@H](CC(C)C)NC(C)=O)[C@@H](C)O)C(=O)N[C@@H](C)C(=O)N[C@@H](Cc2ccc(O)cc2)C(=O)N[C@@H](Cc2c[nH]c3ccccc23)C(=O)N[C@@H](C)C(=O)N[C@@H](CCC(N)=O)C(=O)N[C@@H](CC2CCC2)C(=O)N1)C(=O)N[C@@H](C)C(=O)N[C@@H](C)C(N)=O [compound 322] (Ac-LTF[R8]AYWAQ[Cba][S5]AA[Nle]AA-NH2; staple 4-11)				
< 10 nM	10 to 100 nM	10 to 100 nM	10 to 100 nM	CC(=O)N[C@@H](CC(C)C)C(=O)N[C@H](C(=O)N[C@@H](Cc1ccc(F)c(F)c1)C(=O)N[C@]1(C)CCCCCCC=CCCC[C@@](C)(C(=O)N[C@@H](CO)C(=O)N[C@@H](C)C(=O)N[C@@H](Cc2ccccc2)C(N)=O)NC(=O)[C@H](CC2CCC2)NC(=O)[C@H](CCC(N)=O)NC(=O)[C@H](C)NC(=O)[C@H](Cc2c[nH]c3ccccc23)NC(=O)[C@H](Cc2ccc(O)cc2)NC(=O)[C@H](C)NC1=O)[C@@H](C)O [compound 259] (Ac-LT[Phe(3,4-F2)][R8]AYWAQ[Cba][S5]SAF-NH2; staple 4-11)				
< 10 nM	10 to 100 nM	10 to 100 nM	100 to 1000 nM	CCCC[C@H](NC(=O)[C@H](C)NC(=O)[C@H](C)NC(=O)[C@]1(C)CCCC=CCCCCCC[C@@](C)(NC(=O)[C@H](Cc2ccccc2)NC(=O)[C@@H](NC(=O)[C@H](CC(C)C)NC(C)=O)[C@@H](C)O)C(=O)N[C@@H](C)C(=O)N[C@@H](Cc2ccc(O)cc2)C(=O)N[C@@H](Cc2c[nH]c3ccccc23)C(=O)N[C@@H](C)C(=O)N[C@@H](CCC(N)=O)C(=O)N[C@@H](CC2CCC2)C(=O)N1)C(=O)N[C@@H](C)C(N)=O [compound 236] (Ac-LTF[R8]AYWAQ[Cba][S5]AA[Nle]A-NH2; staple 4-11)				
10 to 100 nM	100 to 1000 nM	10 to 100 nM	100 to 1000 nM	CCCC[C@H](NC(=O)[C@H](C)NC(=O)[C@H](C)NC(=O)[C@]1(C)CCCC=CCCCCCC[C@@](C)(NC(=O)[C@H](Cc2ccccc2)NC(=O)[C@@H](NC(=O)[C@H](CC(C)C)NC(C)=O)[C@@H](C)O)C(=O)N[C@@H](C)C(=O)N[C@@H](Cc2ccc(O)cc2)C(=O)N[C@@H](Cc2c[nH]c3ccccc23)C(=O)N[C@@H](C)C(=O)N[C@@H](CCC(N)=O)C(=O)N[C@@H](CC(C)C)C(=O)N1)C(=O)N[C@@H](C)C(=O)N[C@@H](C)C(N)=O [compound 320]				
< 10 nM	< 10 nM	10 to 100 nM	10 to 100 nM	CCCC[C@H](NC(=O)[C@H](C)NC(=O)[C@H](C)NC(=O)[C@]1(C)CCCC=CCCCCCC[C@@](C)(NC(=O)[C@H](Cc2ccccc2)NC(=O)[C@@H](NC(=O)[C@H](C)NC(=O)[C@H](C)NC(C)=O)[C@@H](C)O)C(=O)N[C@@H](CCC(=O)O)C(=O)N[C@@H](Cc2ccc(O)cc2)C(=O)N[C@@H](Cc2c[nH]c3ccccc23)C(=O)N[C@@H](C)C(=O)N[C@@H](CCC(N)=O)C(=O)N[C@@H](CC(C)C)C(=O)N1)C(=O)N[C@@H](C)C(N)=O [compound 374] (Ac-AATF[R8]EYWAQL[S5]AA[Nle]A-NH2; staple 5-12)				
< 10 nM	10 to 100 nM	< 10 nM	100 to 1000 nM	CC(=O)N[C@@H](CC(C)C)C(=O)N[C@H](C(=O)N[C@@H](Cc1cccc(Cl)c1)C(=O)N[C@]1(C)CCCCCCC=CCCC[C@@](C)(C(=O)N[C@@H](CO)C(=O)N[C@@H](C)C(=O)N[C@@H](C)C(N)=O)NC(=O)[C@H](CC(C)C)NC(=O)[C@H](CCC(N)=O)NC(=O)[C@H](C)NC(=O)[C@H](Cc2c[nH]c3ccccc23)NC(=O)[C@H](Cc2ccc(O)cc2)NC(=O)[C@H](CCC(=O)O)NC1=O)[C@@H](C)O (single isomer, unassigned) [compound 156]				
< 10 nM	10 to 100 nM			CC(=O)N[C@@H](CC(C)C)C(=O)N[C@H](C(=O)N[C@@H](Cc1ccccc1)C(=O)N[C@]1(C)CCCCCCC=CCCC[C@@](C)(C(=O)N[C@@H](C)C(=O)N[C@@H](C)C(=O)N[C@@H](C)C(=O)N[C@@H](C)C(=O)N[C@@H](C)C(=O)N[C@H](C)C(N)=O)NC(=O)[C@H](CC(C)C)NC(=O)[C@H](CO)NC(=O)[C@H](C)NC(=O)[C@H](Cc2c[nH]c3ccccc23)NC(=O)[C@H](Cc2ccc(O)cc2)NC(=O)[C@H](CCC(=O)O)NC1=O)[C@@H](C)O [compound 610] (Ac-LTF[R8]EYWASL[S5]AAAAA[dA]-NH2; staple 4-11)				
